# Experimental data: patent publication US8541588B2, “Sulfonamide derivatives” (Pfizer Limited, priority 2009, dated 2013)
# Biological target: T1, Nav1.7 (or SCN9A) channel; HEK cells stably transfected with hSCN9A (Homo sapiens, UniProt Q15858)
# T1 construct: expressed in transfected cells
# Test: Nav1.7 block, PatchXpress 7000 automated whole-cell voltage clamp, estimated IC50 (EIC50)
# Type: cell-based
# Details: PatchXpress platform; hSCN9A HEK cells held at V1/2 of inactivation; estimated IC50
# T1 sequence (Q15858 whole entry): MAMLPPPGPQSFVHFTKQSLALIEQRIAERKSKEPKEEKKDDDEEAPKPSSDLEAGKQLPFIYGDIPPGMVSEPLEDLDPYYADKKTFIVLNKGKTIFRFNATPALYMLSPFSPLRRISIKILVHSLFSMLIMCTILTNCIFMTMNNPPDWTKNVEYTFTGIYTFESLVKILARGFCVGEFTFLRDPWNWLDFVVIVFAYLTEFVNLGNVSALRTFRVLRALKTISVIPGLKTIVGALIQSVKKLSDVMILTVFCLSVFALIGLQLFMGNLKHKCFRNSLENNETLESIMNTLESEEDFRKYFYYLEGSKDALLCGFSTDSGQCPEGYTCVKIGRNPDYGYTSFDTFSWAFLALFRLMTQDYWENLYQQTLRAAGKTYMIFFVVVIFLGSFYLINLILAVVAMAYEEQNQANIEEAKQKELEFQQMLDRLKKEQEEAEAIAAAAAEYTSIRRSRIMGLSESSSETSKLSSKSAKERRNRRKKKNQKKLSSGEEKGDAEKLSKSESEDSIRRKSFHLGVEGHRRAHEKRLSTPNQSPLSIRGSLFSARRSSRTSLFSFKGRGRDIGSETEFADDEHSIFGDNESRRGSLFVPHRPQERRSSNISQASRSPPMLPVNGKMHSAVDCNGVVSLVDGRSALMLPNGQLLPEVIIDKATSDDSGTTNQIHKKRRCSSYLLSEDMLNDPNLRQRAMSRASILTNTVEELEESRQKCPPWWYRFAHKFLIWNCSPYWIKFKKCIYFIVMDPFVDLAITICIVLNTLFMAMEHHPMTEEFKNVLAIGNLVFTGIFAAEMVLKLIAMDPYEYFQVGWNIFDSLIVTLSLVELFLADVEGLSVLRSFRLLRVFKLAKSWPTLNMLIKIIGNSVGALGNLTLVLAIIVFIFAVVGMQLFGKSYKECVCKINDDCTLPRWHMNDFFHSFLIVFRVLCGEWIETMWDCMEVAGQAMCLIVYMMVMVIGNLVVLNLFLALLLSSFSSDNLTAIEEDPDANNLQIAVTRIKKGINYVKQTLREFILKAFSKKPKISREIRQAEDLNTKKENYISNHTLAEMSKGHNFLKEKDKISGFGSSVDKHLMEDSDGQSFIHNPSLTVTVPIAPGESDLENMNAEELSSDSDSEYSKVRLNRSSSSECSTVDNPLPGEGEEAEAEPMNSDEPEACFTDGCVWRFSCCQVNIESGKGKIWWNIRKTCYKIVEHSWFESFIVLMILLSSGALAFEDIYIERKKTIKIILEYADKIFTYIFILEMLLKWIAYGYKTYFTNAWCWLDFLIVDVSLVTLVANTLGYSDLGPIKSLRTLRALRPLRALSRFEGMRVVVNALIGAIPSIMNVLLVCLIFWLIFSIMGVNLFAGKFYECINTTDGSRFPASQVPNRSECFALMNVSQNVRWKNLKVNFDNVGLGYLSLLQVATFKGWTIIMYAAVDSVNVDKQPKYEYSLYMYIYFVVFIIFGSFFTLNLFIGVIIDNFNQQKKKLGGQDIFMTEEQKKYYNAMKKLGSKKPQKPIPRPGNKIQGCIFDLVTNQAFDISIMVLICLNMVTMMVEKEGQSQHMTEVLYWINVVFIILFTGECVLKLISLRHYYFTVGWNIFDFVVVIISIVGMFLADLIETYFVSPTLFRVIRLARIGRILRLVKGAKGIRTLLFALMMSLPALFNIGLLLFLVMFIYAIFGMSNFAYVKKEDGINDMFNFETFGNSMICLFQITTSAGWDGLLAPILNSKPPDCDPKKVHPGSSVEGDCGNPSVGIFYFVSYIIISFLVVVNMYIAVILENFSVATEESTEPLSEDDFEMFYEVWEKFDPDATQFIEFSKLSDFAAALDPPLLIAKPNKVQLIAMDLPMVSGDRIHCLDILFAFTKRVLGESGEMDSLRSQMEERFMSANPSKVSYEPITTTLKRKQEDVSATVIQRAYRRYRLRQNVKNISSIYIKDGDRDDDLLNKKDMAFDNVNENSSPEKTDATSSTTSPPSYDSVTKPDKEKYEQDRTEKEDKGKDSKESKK
row,SMILES,IC50
1,"COc1ccc(-n2cc(Oc3ccc(S(=O)(=O)Nc4ncc(Cl)s4)cc3C#N)c(C(C)C)n2)cc1 [Example 145, N-(5-chloro-1,3-thiazol-2-yl)-3-cyano-4-{[3-isopropyl-1-(4-methoxyphenyl)-1H-pyrazol-4-yl]oxy}benzenesulfonamide]",2000 nM
2,"N#Cc1cc(S(=O)(=O)Nc2ncc(Cl)s2)ccc1Oc1ccccc1-c1ccccc1 [Example 146, 4-(biphenyl-2-yloxy)-N-(5-chloro-1,3-thiazol-2-yl)-3-cyanobenzenesulfonamide]",890 nM
3,"O=S(=O)(Nc1ncc(Cl)s1)c1ccc(Oc2ccccc2-c2ccccc2)c(F)c1 [Example 147, 4-(Biphenyl-2-yloxy)-N-(5-chloro-thiazol-2-yl)-3-fluoro-benzenesulfonamide]",1510 nM
4,"O=S(=O)(Nc1ncns1)c1ccc(Oc2ccc(CC3CC3)cc2)c(Cl)c1 [Example 148, 3-chloro-4-[4-(cyclopropylmethyl)phenoxy]-N-1,2,4-thiadiazol-5-ylbenzenesulfonamide]",2530 nM
5,"O=S(=O)(Nc1ncns1)c1ccc(Oc2ccc(-c3ccccc3)cc2)c(Cl)c1 [Example 149, 4-(biphenyl-4-yloxy)-3-chloro-N-1,2,4-thiadiazol-5-ylbenzenesulfonamide]",920 nM
6,"O=S(=O)(Nc1ncns1)c1ccc(Oc2ccccc2-c2ccccc2)c(Cl)c1 [Example 150, 4-(biphenyl-2-yloxy)-3-chloro-N-1,2,4-thiadiazol-5-ylbenzenesulfonamide]",190 nM
7,"COc1ccc(-c2cc(F)ccc2Oc2ccc(S(=O)(=O)Nc3nccs3)cc2C#N)cn1 [Example 151, 3-cyano-4-[4-fluoro-2-(6-methoxypyridin-3-yl)phenoxy]-N-1,3-thiazol-2-ylbenzenesulfonamide]",50 nM
8,"N#Cc1cc(S(=O)(=O)Nc2nccs2)ccc1Oc1ccc(F)cc1-c1ccc(F)cc1 [Example 152, 3-cyano-4-[(4′,5-difluorobiphenyl-2-yl)oxy]-N-1,3-thiazol-2-ylbenzenesulfonamide]",80 nM
9,"N#Cc1cc(S(=O)(=O)Nc2nccs2)ccc1Oc1ccc(F)cc1-c1cccc(CCO)c1 [Example 153, 3-cyano-4-{[5-fluoro-3′-(2-hydroxyethyl)biphenyl-2-yl]oxy}-N-1,3-thiazol-2-ylbenzenesulfonamide]",60 nM
10,"COc1cccc(-c2cc(F)ccc2Oc2ccc(S(=O)(=O)Nc3nccs3)cc2C#N)c1 [Example 154, 3-cyano-4-[(5-fluoro-3′-methoxybiphenyl-2-yl)oxy]-N-1,3-thiazol-2-ylbenzenesulfonamide]",130 nM
11,"CC(C)Oc1ccc(-c2cc(Cl)ccc2Oc2ccc(S(=O)(=O)Nc3nccs3)cc2C#N)cc1 [Example 155, 4-[(5-chloro-4′-isopropoxybiphenyl-2-yl)oxy]-3-cyano-N-1,3-thiazol-2-ylbenzenesulfonamide]",850 nM
12,"N#Cc1cc(S(=O)(=O)Nc2nccs2)ccc1Oc1ccc(Cl)cc1-c1ccccc1 [Example 156, 4-[(5-chlorobiphenyl-2-yl)oxy]-3-cyano-N-1,3-thiazol-2-ylbenzenesulfonamide]",30 nM
13,"CC(C)Oc1ccc(-c2cc(F)ccc2Oc2ccc(S(=O)(=O)Nc3nccs3)cc2C#N)cc1 [Example 157, 3-cyano-4-[(5-fluoro-4′-isopropoxybiphenyl-2-yl)oxy]-N-1,3-thiazol-2-ylbenzenesulfonamide]",450 nM
14,"N#Cc1cc(S(=O)(=O)Nc2nccs2)ccc1Oc1ccc(F)cc1-c1ccc(F)c(F)c1 [Example 158, 3-cyano-N-1,3-thiazol-2-yl-4-[(3′,4′,5-trifluorobiphenyl-2-yl)oxy]benzenesulfonamide]",310 nM
15,"Cc1nccn1-c1cc(Cl)ccc1Oc1ccc(S(=O)(=O)Nc2nccs2)cc1C#N [Example 159, 4-[4-chloro-2-(2-methyl-1H-imidazol-1-yl)phenoxy]-3-cyano-N-1,3-thiazol-2-ylbenzenesulfonamide]",80 nM
16,"COCc1cccc(-c2cc(F)ccc2Oc2ccc(S(=O)(=O)Nc3nccs3)cc2C#N)c1 [Example 160, 3-cyano-4-{[5-fluoro-3′-(methoxymethyl)biphenyl-2-yl]oxy}-N-1,3-thiazol-2-ylbenzenesulfonamide]",60 nM
17,"N#Cc1cc(S(=O)(=O)Nc2nccs2)ccc1Oc1ccc(F)cc1-c1cccc(CO)c1 [Example 161, 3-cyano-4-{[5-fluoro-3′-(hydroxymethyl)biphenyl-2-yl]oxy}-N-1,3-thiazol-2-ylbenzenesulfonamide]",70 nM
18,"N#Cc1cc(S(=O)(=O)Nc2nccs2)ccc1Oc1ccc(F)cc1-c1ccc(CO)cc1 [Example 162, 3-cyano-4-{[5-fluoro-4′-(hydroxymethyl)biphenyl-2-yl]oxy}-N-1,3-thiazol-2-ylbenzenesulfonamide]",420 nM
19,"COCc1ccc(-c2cc(F)ccc2Oc2ccc(S(=O)(=O)Nc3nccs3)cc2C#N)cc1 [Example 163, 3-cyano-4-{[5-fluoro-4′-(methoxymethyl)biphenyl-2-yl]oxy}-N-1,3-thiazol-2-ylbenzenesulfonamide]",410 nM

row,SMILES,IC50
1,"N#Cc1cc(S(=O)(=O)Nc2nccs2)ccc1Oc1ccc(Cl)cc1-c1ccccn1 [Example 164, 4-(4-chloro-2-pyridin-2-ylphenoxy)-3-cyano-N-1,3-thiazol-2-ylbenzenesulfonamide]",580 nM
2,"N#Cc1cc(S(=O)(=O)Nc2nccs2)ccc1Oc1ccccc1-c1ccccc1 [Example 165, 4-(biphenyl-2-yloxy)-3-cyano-N-(thiazol-2-yl)benzenesulfonamide]",50 nM
3,"Cc1nc(-c2ccccc2Oc2ccc(S(=O)(=O)Nc3nccs3)cc2C#N)cs1 [Example 166, 3-cyano-4-(2-(2-methylthiazol-4-yl)phenoxy)-N-(thiazol-2-yl)benzenesulfonamide]",1810 nM
4,"N#Cc1cc(S(=O)(=O)Nc2nccs2)ccc1Oc1cnn(Cc2ccc(Cl)cc2)c1 [Example 167, 4-(1-(4-chlorobenzyl)-1H-pyrazol-4-yloxy)-3-cyano-N-(thiazol-2-yl)benzenesulfonamide]",750 nM
5,"N#Cc1cc(S(=O)(=O)Nc2nccs2)ccc1Oc1cc(C(F)(F)F)nn1-c1ccccc1 [Example 168, 3-cyano-4-(1-phenyl-3-(trifluoromethyl)-1H-pyrazol-5-yloxy)-N-(thiazol-2-yl)benzenesulfonamide]",70 nM
6,"Cn1nccc1-c1cc(F)ccc1Oc1ccc(S(=O)(=O)Nc2nccs2)cc1C#N [Example 169, 3-cyano-4-(4-fluoro-2-(1-methyl-1H-pyrazol-5-yl)phenoxy)-N-(thiazol-2-yl)benzenesulfonamide]",50 nM
7,"Cn1nccc1-c1cc(Cl)ccc1Oc1ccc(S(=O)(=O)Nc2nccs2)cc1C#N [Example 170, 4-[4-Chloro-2-(1-methyl-1H-pyrazol-5-yl)phenoxy]-3-cyano-N-1,3-thiazol-2-ylbenzenesulfonamide]",10 nM
8,"N#Cc1cc(S(=O)(=O)Nc2nccs2)ccc1Oc1ccc(Cl)cc1-c1ccnn1-c1ccccc1 [Example 171, 4-(4-chloro-2-(1-phenyl-1H-pyrazol-5-yl)phenoxy)-3-cyano-N-(thiazol-2-yl)benzenesulfonamide]",110 nM
9,"N#Cc1cc(S(=O)(=O)Nc2nccs2)ccc1Oc1ccccc1-c1nnco1 [Example 173, 4-(2-(1,3,4-oxadiazol-2-yl)phenoxy)-3-cyano-N-(thiazol-2-yl)benzenesulfonamide]",2090 nM
10,"N#Cc1cc(S(=O)(=O)Nc2nccs2)ccc1Oc1ccccc1-c1ccno1 [Example 174, 3-cyano-4-(2-(isoxazol-5-yl)phenoxy)-N-(thiazol-2-yl)benzenesulfonamide]",>10000 nM
11,"N#Cc1cc(S(=O)(=O)Nc2nccs2)ccc1Oc1ccc(F)cc1-c1ccnn1CC(F)(F)F [Example 175, 3-cyano-4-(4-fluoro-2-(1-(2,2,2-trifluoroethyl)-1H-pyrazol-5-yl)phenoxy)-N-(thiazol-2-yl)benzenesulfonamide]",540 nM
12,"Cc1ccnn1-c1cc(F)ccc1Oc1ccc(S(=O)(=O)Nc2nccs2)cc1C#N [Example 176, 3-cyano-4-(4-fluoro-2-(5-methyl-1H-pyrazol-1-yl)phenoxy)-N-(thiazol-2-yl)benzenesulfonamide]",8870 nM
13,"N#Cc1cc(S(=O)(=O)Nc2nccs2)ccc1Oc1ccc(Cl)cc1-c1ccnn1CC(F)(F)F [Example 177, 4-(4-chloro-2-(1-(2,2,2-trifluoroethyl)-1H-pyrazol-5-yl)phenoxy)-3-cyano-N-(thiazol-2-yl)benzenesulfonamide]",100 nM
14,"Cn1ccc(-c2ccc(Oc3ccc(S(=O)(=O)Nc4nccs4)cc3C#N)c(Cl)c2)n1 [Example 178, 4-(2-chloro-4-(1-methyl-1H-pyrazol-3-yl)phenoxy)-3-cyano-N-(thiazol-2-yl)benzenesulfonamide]",3080 nM
15,"Cn1nccc1-c1ccc(Oc2ccc(S(=O)(=O)Nc3nccs3)cc2C#N)c(Cl)c1 [Example 179, 4-(2-chloro-4-(1-methyl-1H-pyrazol-5-yl)phenoxy)-3-cyano-N-(thiazol-2-yl)benzenesulfonamide]",2190 nM
16,"N#Cc1cc(S(=O)(=O)Nc2nccs2)ccc1Oc1ccccc1-c1nncn1-c1ccccc1 [Example 181, 3-cyano-4-(2-(4-phenyl-4H-1,2,4-triazol-3-yl)phenoxy)-N-(thiazol-2-yl)benzenesulfonamide]",>10000 nM
17,"Cn1cnnc1-c1cc(Cl)ccc1Oc1ccc(S(=O)(=O)Nc2nccs2)cc1C#N [Example 182, 4-(4-chloro-2-(4-methyl-4H-1,2,4-triazol-3-yl)phenoxy)-3-cyano-N-(thiazol-2-yl)benzenesulfonamide]",930 nM
18,"N#Cc1cc(S(=O)(=O)Nc2nccs2)ccc1Oc1ccc(-n2ccc(C(F)(F)F)n2)cc1 [Example 183, 3-cyano-N-thiazol-2-yl-4-[4-(3-trifluoromethyl-pyrazol-1-yl)-phenoxy]-benzenesulfonamide]",990 nM
19,"CC(C)(C)n1ccc(-c2ccc(Oc3ccc(S(=O)(=O)Nc4nccs4)cc3C#N)c(F)c2)n1 [Example 184, 4-[4-(1-tert-butyl-1H-pyrazol-3-yl)-2-fluoro-phenoxy]-3-cyano-N-thiazol-2-yl-benzenesulfonamide]",9170 nM
